Measured values: patent publication US12318365B2, “Inhibition of dipeptide repeat proteins” (ALS Therapy Development Institute, priority 2019, dated 2025)
“Also recorded” adds a separate entry of the source.

Assays:
[1] = tested on: asymmetrical arginine methylation of NSC-34 cells; experiment: Cellular asymmetric arginine methylation (800/700 fluorescence readout) in NSC-34 cells; format: cell-based, Mouse; conditions: 24 hour treatment
Method: On Day 0, NSC-34 Cells were plated in 48 wells of a 96 well plate, and CHO cells were plated in the other 48 wells of the same 96-well plate. NSC-34 cells were plated in DMEM/High glucose media. CHO cells were plated in Ham's F-12K (Kaighn's) Medium. Both cell lines were incubated overnight to reach approximately 50% confluency.
On Day 1, 24 wells of the NSC-34 cells and 24 wells of the CHO cells were treated with the following concentrations of MS023: 1 μM, 3 μM, 6 μM, 10 μM, 30 μM, and 60 μM. The cells were then incubated overnight.
On Day 2, 18 wells of the untreated NSC-34 cells and 18 wells of the untreated CHO cells were treated with the same concentrations of MS023 as those on Day 1. This left 6 wells of each cell line that never received MS023. Once MS023 was added, the cells were incubated overnight.
On Day 3, all media in the 96-well plate was removed and the cells were fixed with 3.7% Paraformaldehyde (PFA). Cells were then washed and permeabilized with 1×PBS/0.1% Triton X-100.
After removing the PBS/Triton wash, Odyssey Blocking Buffer (LI-COR, 927-40100) was applied to all wells and the plate sat at room temperature with moderate shaking for 90 minutes. After 90 minutes, the blocking buffer was removed and the cells were treated with a 1:500 dilution of the Anti-Asymmetric Di-Methyl Arginine Motif primary antibody (Cell Signaling Technology, #13522). Incubation with the primary antibody continued overnight at 4 degrees Celsius with no shaking.
On Day 4, the primary antibody solution was removed from the plate, and the cells were washed with 1×PBS/0.1% Tween 20. After washing, cells were given a secondary antibody mixture containing a 1:1000 dilution of IRDye 800 CW Anti-Rabbit antibody (LI-COR, 926-32211) and a 1:500 dilution of Cell Tag 700 Stain (LI-COR, 926-41090). The secondary antibody mixture remained on cells for 60 minutes with gentle shaking and protected from light.
(§1) After 60 minutes, the secondary antibody mixture was removed and the cells were again washed with 1×PBS/0.1% Tween 20. All wash buffer was then removed, and the plate was gently patted dry to remove excess solution. The plate was then read on the LI-COR Odyssey Classic Imaging System which provides results based on fluorescence. In this experiment, fluorescence occurred as a result of cellular, asymmetric arginine methylation. MS023 was given to cells for either 24 or 48 hours, with expectation for it to reduce cellular, asymmetric arginine methylation. Cell number per well was accounted for using the Cell Tag 700 Stain, which fluorescently labels total protein levels in a cell. To this effect, fluorescence from asymmetrical arginine methylation per well (800) was divided by fluorescence from the total protein level per well (700) to produce an outcome of 800/700.
On Day 1, 24 wells of the NSC-34 cells and 24 wells of the CHO cells were treated with the following concentrations of MS049: 0.2 μM, 1 μM, 2 μM, 10 μM, 20 μM, and 100 μM. The cells were then incubated overnight.
On Day 2, 18 wells of the untreated NSC-34 cells and 18 wells of the untreated CHO cells were treated with the same concentrations of MS049 as those on Day 1. This left 6 wells of each cell line that never received MS049. Once MS049 was added, the cells were incubated overnight.
as §1, with “MS049” for “MS023”, “To this effect, fluorescence from asymmetrical arginine methylation per well (800) was divided by fluorescence from the total protein level per well (700) to produce an outcome of 800/700.” left out

NSC-34 cells = experiment: LDH assay (cytotoxicity) in NSC-34 cells; format: cell-based; conditions: for toxicity independently of GR and PR treatment: no DRP
Excerpt: LDH Assay: The LDH assay is a colorimetric assay that measures cell toxicity and death. […] When cells lose membrane integrity, an enzyme found in living cells called lactate dehydrogenase (LDH) is released into the solution surrounding the dying cell. A form of programmed cell death, apoptosis, as well as other forms of cell death also ultimately lead to a cell's membrane being destroyed, resulting in a large release of LDH into the extracellular space. Thus, LDH is an excellent marker not only for necrosis, but for all instances of cell death. In an LDH assay, a sample of the solution surrounding the cell is isolated, and transferred to a plate containing an LDH reaction mixture. This reaction mixture contains a tetrazolium salt intermediate and other reaction constituents that, when exposed to LDH, convert the tetrazolium salt into a colored Formazan product. This Formazan product can be quantified spectrophotometrically. Greater absorbance readings correspond to more cell death.
One row on the top and bottom of the plate, and two columns on either side of the plate, were left without cells and contained culture medium only to minimize experimental well volume evaporation. After plating, cells were incubated for 24 h at 37° C., 5% CO2 prior to DRP and/or PRMT inhibitor addition. At time of DRP/PRMT inhibitor addition, desired doses of DRP for challenge and inhibitor for treatment were achieved by diluting aliquots of each stock in warm culture medium. During experiments where both PRMT inhibitors and DRPs were used, PRMT inhibitors were always applied to wells first, and followed by DRP application. […] Inhibitor toxicity controls were included as wells treated with the desired doses of drug for the experiment, but no DRP. DRP toxicity controls were included as wells only treated with the doses of DRP used for challenge. Once dosed, plates were incubated for 24 h at 37° C., 5% CO2 prior to running the WST-1 or LDH assay endpoints. Additional controls needed for each endpoint are specified in the “WST-1 Assay” and “LDH Assay” sections of these methods.
LDH Assay: Cells were plated and prepared using the steps described in the “Plating NSC-34 and Dosing with DRPs and PRMT Inhibitors” section of these methods. Other controls for this experiment included several sets of wells with only cells in culture medium (one triplicate designated for “untreated,” one triplicate designated for “lysed” positive control), and wells with culture medium only. An additional control added only to the transfer plate at time of testing was 5 μL LDH only. Testing was performed using colorimetric LDH-Cytotoxicity Assay Kit II (Abcam, Cambridge, MA, USA) per manufacturer's instructions. Final read at 450 nm was performed on a SpectraMax M3 Microplate Reader (Molecular Devices, San Jose, CA, USA). Data analysis included calculation of % LDH release using the following equation: […]
Experiments included three replicates per condition. Each experiment was repeated twice (executed three times total).
(§2) The following conditions were plated in triplicate.
Plates were incubated for 24 h at 37° C., 5% CO2. Cells were tested and data were analyzed by LDH assay.
Cells were plated in culture medium in 2 96-well plates at a density of 3.7×10^4 cells per well, and incubated overnight at 37° C., 5% CO2.
as §2
Cells were plated in culture medium in 2 96-well plates at a density of 3.7×10^4 cells per well, and incubated overnight at 37° C., 5% CO2. […]
The following conditions were plated in triplicate. […]

CNCCN1CCC(OCc2ccccc2)CC1 [MS049]
decrease of asymmetrical arginine methylation ([1]; 1 μM, vs untreated cells): approximately 17% | decrease of asymmetrical arginine methylation ([1]; 100 μM): ~39% | dose dependence of abrogation of GR15-induced cytotoxicity (NSC-34 cells; 3 μM GR15, 24 h, dose range of the example): dose-dependently abrogated | abrogation of GR-induced toxicity (NSC-34 cells; 3 μM GR15, 24 h, doses 0.2, 1, 2, 20 and 100 μM): partially abrogated | abrogation of GR-induced toxicity (NSC-34 cells; 3 μM GR15, 24 h, doses 2 and 10 μM): completely abrogated | abrogation of GR15-induced cytotoxicity (NSC-34 cells; 3 μM GR15, doses 1 and 20 μM): partially abrogated | dose dependence of abrogation of PR15-induced cytotoxicity (NSC-34 cells; 3 μM PR15, 24 h, dose range of the example): dose-dependently abrogated | abrogation of PR-induced toxicity (NSC-34 cells; 3 μM PR15, 24 h, doses 0.2, 1, 2, 20 and 100 μM): partially abrogated | abrogation of PR-induced toxicity (NSC-34 cells; 3 μM PR15, 24 h, doses 2 and 10 μM): completely abrogated | abrogation of PR15-induced cytotoxicity (NSC-34 cells; 3 μM PR15, doses 1 and 20 μM): partially abrogated | toxicity independently of GR and PR treatment (NSC-34 cells; doses 100 and 20 μM): did cause significant toxicity; also recorded: did cause significant cytotoxicity | toxicity independently of GR and PR treatment (NSC-34 cells; other doses tested (0.2, 1, 2, 10 μM)): not at other doses tested
